Test system: patients after acute myocardial infarction
Assay: TCM symptom score, total and single (chest pain, chest tightness, short breath, fatigue, palpitation, spontaneous perspiration, pale complexion), same clinical trial
Type: in vivo, human
Design: total score of TCM symptom, Mean / total score of TCM symptom, Min / total score of TCM symptom, Max / total score of TCM symptom, Md / change of total score of TCM symptom, Mean / change of total score of TCM symptom, Max / change of total score of TCM symptom, Md: scale not given here
Conditions: FAS
Source text: 3508 patients who were in accordance with the diagnostic standards of AMI for 28 days to 2 years and differentiated as Qi deficiency and blood stagnation syndrome by TCM were studied. 0.5 g Chinese medicine composition prepared by the method of EXAMPLE 1 (Coded as QSYQ) was administrated half an hour after meal, 3 times per day.
They included the overall survival time, angina pectoris score, TCM symptom score and life quality score, where angina pectoris score, TCM symptom score and life quality score were evaluated at randomization, in 1st, 3rd, 6th, 9th, 12th month after treatment and 18th month after follow-up.
The analysis method referred to the angina pectoris score.

[1] = 6 months after treatment-baseline
[2] = 9 months after treatment-baseline

Compound: CC(=O)Oc1ccccc1C(=O)O [Control group, aspirine]
- change of fatigue −2, number of patients [1]: 108
- change of fatigue −4, % of patients [1]: (0.70%)
- change of fatigue −4, number of patients [1]: 12
- change of fatigue −6, % of patients [1]: (0.00%)
- change of fatigue −6, number of patients [1]: 0
- change of pale complexion 0, number of patients [1]: 1322
- change of pale complexion 0, percent of patients [1]: (77.40%)
- change of pale complexion 1, number of patients [1]: 319
- change of pale complexion 1, percent of patients [1]: (18.68%)
- change of pale complexion −1, number of patients [1]: 67
- change of pale complexion −1, percent of patients [1]: (3.92%)
- change of palpitation 0, number of patients [1]: 1034
- change of palpitation 0, percent of patients [1]: (60.47%)
- change of palpitation 1, number of patients [1]: 490
- change of palpitation 1, percent of patients [1]: (28.65%)
- change of palpitation 2, number of patients [1]: 56
- change of palpitation 2, percent of patients [1]: (3.27%)
- change of palpitation 3, number of patients [1]: 9
- change of palpitation 3, percent of patients [1]: (0.53%)
- change of palpitation −1, percent of patients [1]: (6.78%)
- change of palpitation −2, number of patients [1]: 5
- change of palpitation −2, percent of patients [1]: (0.29%)
- change of palpitation −3, number of patients [1]: 0
- change of palpitation −3, percent of patients [1]: (0.00%)
- change of short breath 0, % of patients [1]: (64.85%)
- change of short breath 0, number of patients [1]: 1109
- change of short breath 2, % of patients [1]: (25.44%)
- change of short breath 2, number of patients [1]: 435
- change of short breath 4, % of patients [1]: (2.98%)
- change of short breath 4, number of patients [1]: 51
- change of short breath 6, % of patients [1]: (0.53%)
- change of short breath 6, number of patients [1]: 9
- change of short breath −2, % of patients [1]: (5.96%)
- change of short breath −2, number of patients [1]: 102
- change of short breath −4, % of patients [1]: (0.12%)
- change of short breath −4, number of patients [1]: 2
- change of short breath −6, % of patients [1]: (0.12%)
- change of short breath −6, number of patients [1]: 2
- change of spontaneous perspiration 0, number of patients [1]: 959
- change of spontaneous perspiration 0, percent of patients [1]: (56.11%)
- change of spontaneous perspiration 1, number of patients [1]: 468
- change of spontaneous perspiration 1, percent of patients [1]: (27.38%)
- change of spontaneous perspiration 2, number of patients [1]: 93
- change of spontaneous perspiration 2, percent of patients [1]: (5.44%)
- change of spontaneous perspiration 3, number of patients [1]: 29
- change of spontaneous perspiration 3, percent of patients [1]: (1.70%)
- change of spontaneous perspiration −1, number of patients [1]: 137
- change of spontaneous perspiration −1, percent of patients [1]: (8.02%)
- change of spontaneous perspiration −2, number of patients [1]: 23
- change of spontaneous perspiration −2, percent of patients [1]: (1.35%)
- change of spontaneous perspiration −3, number of patients [1]: 0
- change of spontaneous perspiration −3, percent of patients [1]: (0.00%)
- change of total score of TCM symptom, Max [1]: 19.00
- change of total score of TCM symptom, Md [1]: −3.00
- change of total score of TCM symptom, Mean [1]: −3.76
- change of total score of TCM symptom, Min [1]: −33.00
- distribution of total score of TCM symptom: Medium, number of patients (9 months after treatment): 345
- distribution of total score of TCM symptom: Medium, percentage of patients (9 months after treatment): (23.03%)
- distribution of total score of TCM symptom: Mild, number of patients (9 months after treatment): 1149
- distribution of total score of TCM symptom: Mild, percentage of patients (9 months after treatment): (76.70%)
- distribution of total score of TCM symptom: Severe, number of patients (9 months after treatment): 4
- distribution of total score of TCM symptom: Severe, percentage of patients (9 months after treatment): (0.27%)
- fatigue score 0, % of patients (9 months after treatment): (33.53%)
- fatigue score 0, number of patients (9 months after treatment): 576
- fatigue score 2, % of patients (9 months after treatment): (60.24%)
- fatigue score 2, number of patients (9 months after treatment): 1035
- fatigue score 4, % of patients (9 months after treatment): (5.12%)
- fatigue score 4, number of patients (9 months after treatment): 88
- fatigue score 6, % of patients (9 months after treatment): (1.11%)
- fatigue score 6, number of patients (9 months after treatment): 19
- pale complexion score 0, number of patients (9 months after treatment): 912
- pale complexion score 0, percent of patients (9 months after treatment): (53.08%)
- pale complexion score 1, number of patients (9 months after treatment): 653
- pale complexion score 1, percent of patients (9 months after treatment): (38.01%)
- pale complexion score 2, number of patients (9 months after treatment): 142
- pale complexion score 2, percent of patients (9 months after treatment): (8.27%)
- pale complexion score 3, number of patients (9 months after treatment): 11
- pale complexion score 3, percent of patients (9 months after treatment): (0.64%)
- palpitation score 0, number of patients (9 months after treatment): 581
- palpitation score 0, percent of patients (9 months after treatment): (33.82%)
- palpitation score 2, number of patients (9 months after treatment): 929
- palpitation score 2, percent of patients (9 months after treatment): (54.07%)
- palpitation score 4, number of patients (9 months after treatment): 179
- palpitation score 4, percent of patients (9 months after treatment): (10.42%)
- palpitation score 6, number of patients (9 months after treatment): 29
- palpitation score 6, percent of patients (9 months after treatment): (1.69%)
- short breath score 0, % of patients (9 months after treatment): (28.46%)
- short breath score 0, number of patients (9 months after treatment): 489
- short breath score 3, % of patients (9 months after treatment): (57.86%)
- short breath score 3, number of patients (9 months after treatment): 994
- short breath score 6, % of patients (9 months after treatment): (13.21%)
- short breath score 6, number of patients (9 months after treatment): 227
- short breath score 9, % of patients (9 months after treatment): (0.47%)
- short breath score 9, number of patients (9 months after treatment): 8
- spontaneous perspiration score 0, number of patients (9 months after treatment): 788
- spontaneous perspiration score 0, percent of patients (9 months after treatment): (45.87%)
- spontaneous perspiration score 1, number of patients (9 months after treatment): 813
- spontaneous perspiration score 1, percent of patients (9 months after treatment): (47.32%)
- spontaneous perspiration score 2, number of patients (9 months after treatment): 105
- spontaneous perspiration score 2, percent of patients (9 months after treatment): (6.11%)
- spontaneous perspiration score 3, number of patients (9 months after treatment): 12
- spontaneous perspiration score 3, percent of patients (9 months after treatment): (0.70%)
- total score of TCM symptom, Max (9 months after treatment): 37.00
- total score of TCM symptom, Md (9 months after treatment): 8.00
- total score of TCM symptom, Mean (9 months after treatment): 9.29
- total score of TCM symptom, Min (9 months after treatment): 0.00
- change of fatigue 0, % of patients [2]: (50.53%)
- change of fatigue 0, number of patients [2]: 864
- change of fatigue 2, % of patients [2]: (33.45%)
- change of fatigue 2, number of patients [2]: 572
- change of fatigue 4, % of patients [2]: (7.31%)
- change of fatigue 4, number of patients [2]: 125
- change of fatigue 6, % of patients [2]: (1.17%)
- change of fatigue 6, number of patients [2]: 20
- change of fatigue −2, % of patients [2]: (6.73%)
- change of fatigue −2, number of patients [2]: 115
- change of fatigue −4, % of patients [2]: (0.76%)
- change of fatigue −4, number of patients [2]: 13
- change of fatigue −6, % of patients [2]: (0.06%)
- change of fatigue −6, number of patients [2]: 1
- change of pale complexion 0, number of patients [2]: 1284
- change of pale complexion 0, percent of patients [2]: (75.18%)
- change of pale complexion 1, number of patients [2]: 365
- change of pale complexion 1, percent of patients [2]: (21.37%)
